Reference: patent US20130157924A1, “REDUCING TRANSMISSION OF SEXUALLY TRANSMITTED INFECTIONS” (THE REGENTS OF THE UNIVERSITY OF CALIFORNIA, priority 2010, published 2013)
“Also recorded” adds a separate entry of the source.

Key:
[1] = system: cervical epithelial cell lines SiHa, A2En (endocervical), and 3EC1 (ectocervical); assay: Viability of cervical cell lines (resazurin, AlamarBlue); assay type: cell-based, human; conditions: up to 10 times the IC50 (66 μg/ml)
Excerpt: Loss of this protective layer leads to an increased ability for HIV-1 to cross the mucosal barrier, and inflammatory effects drive recruitment of HIV-1 target cells, further decreasing the natural barriers against successful transmission of HIV. […] To do this, the following cell lines were used: 1) SiHa cells, a cervical carcinoma cell line; 2) A2En cells, a primary cell-derived line from the endocervical […]; and 3) 3EC1 cells, a primary cell-derived line from the ectocervical […]. […] Viability was assessed at 24 h by using the resazurin cytotoxicity assay. Resazurin cytotoxicity data were confirmed by trypan blue counts of viable cells.

HIV-1 (IIIB) = assay: SEVI mediated enhancement of HIV infection, CEM 5.25 cells (luciferase); assay type: cell-based; conditions: 25 μg/mL SEVI fibrils; compound 5.5, 11 and 16.5 μg/mL; 72 hrs
Procedure: CEM 5.25 cells were exposed to infectious HIV-1 (IIIB) for 2 hours in the absence or presence (25 μg/mL) of SEVI fibrils; BTA-EG4 (FIG. 5A) and EG6 (FIG. 5B) was added at concentrations of 5.5, 11 and 16.5 μg/mL.

HIV-1 IIIB [2] = assay: Semen mediated enhancement of HIV infection, CEM 5.25 cells (luciferase); assay type: cell-based; conditions: 50% semen, diluted 15 fold; 48 hours
Procedure: After 10 minutes these stocks were diluted 15 fold into CEM 5.25 cells.
After 10 minutes, the stocks were diluted 15 fold and incubated with CEM 5.25 cells. […] After 90 minutes cells were washed to remove any unbound virus and bound virions were detected using a p24 ELISA.

[3] = system: A2En, 3EC1, and SiHa Cells; assay: Cytokine and chemokine induction in cervical cell lines (ELISA); conditions: 6 h; varying concentrations up to 66 μg/ml
Procedure: Cytokine and chemokine production was assessed at 12 h by ELISA (R&D systems). Cells were also treated with 0.1% nonoxynol-9 as a positive control for cytotoxicity and with 0.1 μg/ml FSL1, a synthetic diacylated lipoprotein derived from Mycoplasma salivarium (InvivoGen, San Diego, Calif.), as a positive control for chemokine production.
Nonoxynol-9 (non-9), a spermicide, was used as a positive control. […] Cell culture supernatants were then assessed for the presence of the inflammatory cytokines and chemokines Mip-3α (FIG. 5B), IL-8 (FIG. 16C), IL-1β, and TNF-α.

SEVI fibrils = target: T1, SEVI fibrils (Homo sapiens, UniProt P15309); assay: Fluorescence polarization, displacement of FITC-heparin from SEVI fibrils; assay type: binding; design: PAP248-286 and biotinylated PAP248-286, in which a biotin was added to the amino terminus of the peptide, was synthesized; made in house; host or cells: chemical peptide synthesis; fibrils formed by agitation in PBS at 37 °C for 72 h; conditions: 16 μg/ml FITC-heparin; 1 h room temperature
T1 sequence (P15309 248-286 limits assumed): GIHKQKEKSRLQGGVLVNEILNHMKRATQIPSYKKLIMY
Procedure: Samples were incubated 1 h at room temperature and read on a PerkinElmer Life Sciences Envision 2012 multilabel reader (PerkinElmer, Waltham, Mass.) at an excitation λ=480 nm and emission λ=535 nm. The horizontal and vertical polarized fluorescence intensities were recorded, and the calculated polarization was determined in millipolarization units.
In order to find other small molecules that bind SEVI, a fluorescence polarizing screen was developed. Polarized light passed over a small unbound molecule with a fluorescent moiety will produce rapid rotation and will result in fluorescence that is de-polarized. Polarized light passed over SEVI bound to a small molecule with a fluorescent moiety will result in fluorescence that is polarized. […] Samples were incubated at excitation of λ=480 and emission λ=535 (FIG. 8, left graph). […] Samples were incubated for 1 hour at room temperature and polarized fluorescence was measured.
ThT is able to intercalate into the generic β-sheet structure of amyloid fibrils. […] This molecule binds to Aβ fibrils and interferes with the ability of Aβ-binding proteins to interact with the fibrils.

HIV-1 IIIB [4] = assay: Virus binding assay, HIV-1 IIIB virions to Jurkat cells (p24); assay type: cell-based; conditions: for SEVI-enhanced binding of HIV-1 IIIB virions to Jurkat cells (p24 ELISA): SEVI-pretreated virions, 90 min, increasing concentrations
Procedure: After 90 minutes, cells were washed to remove any unbound virus and bound virions were detected using a p24 ELISA. […]
After 90 min, cells were washed to remove any unbound virus, and bound virions were detected using an HIV-1 p24 antigen capture assay (Advanced Bioscience Laboratory). […]
After 90 min, cells were washed to remove any unbound virus, and bound virions were detected using an HIV-1 p24 antigen capture assay (Advanced Bioscience Laboratory, Rockville, Md.).

Jurkat cells = assay: Flow cytometry, binding of SEVI-biotin fibrils to Jurkat cell surface (SA-FITC); assay type: cell-based, human; conditions: for MFI (mean fluorescent intensity) / SA-FITC+ (cells with bound fibrils): SEVI-biotin 1 h
Procedure: Cells were incubated for 1 h at 37° C., washed, and stained for 1 h with a covalent conjugate of streptavidin and fluorescein isothiocyanate (SA-FITC). Cells were washed and run on an Accuri C6 Flow Cytometer (Accuri Cytometers, Ann Arbor, Mich.). Data were analyzed using FlowJo (TreeStar Inc, Ashland, Oreg.).
After that time, fibrillar structures were examined by ThT fluorescence. ThT changes in fluorescence intensity when intercalated into the β-sheet structure common to amyloid fibrils; therefore, ThT fluorescence serves as a surrogate measure for fibrillar structure of SEVI and for the stability of SEVI fibrils. […] Binding of the fibrils to the cell surface was detected using SA-FITC. […] Surface-bound fibrils were detected with SA-FITC and measured by flow cytometry. Results are shown as percentage of cells with bound fibrils (SA-FITC+) as well as mean fluorescent intensity (MFI).

A2En cells = conditions: 15 μg/ml SEVI; 5.5, 11, 22.5 μg/ml; 24 h
Procedure: Supernatant was collected at 6 and 24 h, and the production of the chemokines IL-8 and Mip-3α was measured by ELISA (R&D Systems). […] After 6 h, supernatants were collected, and the production of the chemokines IL-8 and Mip-3α was measured by ELISA (R&D systems, Minneapolis, Minn.).
HIV stimulates the release of MIP-3 and IL-8 from vaginal and cervical epithelial cells.

HIV-1ADA [5] = conditions: 22.5 μg/ml BTA-EG6
Procedure: After 90 min, cells were washed to remove any unbound virus, and bound virions were detected using a p24 ELISA. […] At 24 h, supernatants were collected and analyzed by ELISA for the presence of IL-8.
Surface-bound virions were then measured by p24 ELISA after washing off unbound virus. […] Additionally, this experiment was performed using A2En cells, a primary cell-derived endocervical cell line.

[6] = target: aggregated Alzheimer disease-related Aβ(1-42) peptides (Homo sapiens, UniProt P05067); conditions: read-out: Kd for binding to aggregated Aβ(1-42) peptides; same fluorescence binding assay
Procedure: These incubations were performed in duplicate runs and allowed to equilibrate overnight at room temperature. After equilibration, each solution was centrifuged at 16,000×g for 30 min. The supernatants were separated from the pelleted fibrils, and 220 μl of fresh PBS was added to resuspend the pellets. […] Error bars represent standard deviations from the mean. […] The data were processed using Origin 7.0 (MicroCal Software, Inc., Northampton, Mass.).

HIV-1ADA [7] = conditions: individual semen sample, 50%; R5 virus
Procedure: (§1) After 15 min, the semen and virus mixture was diluted 1:15 into 5×10^4 CEM-M7 cells/well in a 96-well plate. Cells were washed after 1 h, and infection was assayed at 48 h as above.
(§2) As human semen has been reported to be toxic to cultured cells, a protocol that minimized this toxicity was used. Pooled human semen was added to HIV-1IIIB virus in a 1:1 dilution. After 15 min, this solution was added to cells at a 1:15 dilution for a final concentration of 3.3%.

HIV-1IIIB = conditions: pooled human semen 1:1, then 1:15; 5.5, 11, 22.5 μg/ml
Procedure: as §1, §2

HIV-1BaL = system: HIV-1BaL
Procedure: Cells were washed at 3 h, and infection was analyzed at day 4 using the HIV-1 p24 antigen capture assay (Advanced Bioscience Laboratory).

HIV-1ADA [8] = system: HIV-1ADA
Procedure: Treated virions were then added to 5×10^4 CEM-M7 cells/well in 96-well flat-bottomed tissue culture plates. After 2 h, the medium […] were replaced. Infection was assayed after 48 h by quantifying luciferase expression using the Promega Dual-Luciferase assay and a Beckman Coulter DTX880 plate reader.

[9] = heparin (100 μg/ml) positive control

Sequence of aggregated Alzheimer disease-related Aβ(1-42) peptides (P05067 672-713): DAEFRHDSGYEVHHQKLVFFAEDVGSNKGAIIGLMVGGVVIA

Compound: Cc1ccc2nc(-c3ccc(NCCOCCOCCOCCO)cc3)sc2c1 [BTA-EG4]
- cell viability [1]: did not affect the cell viability; also recorded: not toxic to cervical epithelial Cells
- SEVI mediated enhancement of HIV infection (luciferase activity) (HIV-1 (IIIB)): decreasing levels of luciferase activity; also recorded: inhibit SEVI mediated enhancement of HIV infection
- semen mediated enhancement of HIV infection (luciferase activity) (HIV-1 IIIB [2]): decrease in luciferase activity; also recorded: inhibit semen mediated enhancement of HIV Infection
- production of inflammatory cytokines and chemokines (Mip-3α, IL-8, IL-1β, TNF-α) [3]: do not induce cytokine production in cervical epithelial cells
- binding to SEVI fibrils (displacement of FITC-heparin, polarized fluorescence) (SEVI fibrils): capable of binding SEVI; also recorded: detects binding
- SEVI-enhanced binding of HIV-1 IIIB virions to Jurkat cells (p24 ELISA) (HIV-1 IIIB [4]): decrease in HIV-1 binding to the cells; also recorded: decrease SEVI enhanced binding of HIV to target cells

Compound: Cc1ccc2nc(-c3ccc(NCCOCCOCCOCCOCCOCCO)cc3)sc2c1 [BTA-EG6]
- cell viability [1]: did not affect the cell viability; also recorded: did not have any effects on cell viability; also recorded: not toxic to cervical cells
- cell viability ([1]; listed as EG6): not toxic to cervical epithelial Cells
- MFI (mean fluorescent intensity) (Jurkat cells; BTA-EG6 high (27 μg/ml)): 38.7
- SA-FITC+ (cells with bound fibrils) (Jurkat cells; BTA-EG6 high (27 μg/ml)): 21.2%
- MFI (mean fluorescent intensity) (Jurkat cells; BTA-EG6 low (5.5 μg/ml)): 95.3
- SA-FITC+ (cells with bound fibrils) (Jurkat cells; BTA-EG6 low (5.5 μg/ml)): 36.6%
- interaction of SEVI fibrils with the cell surface (Jurkat cells; Jurkat T cells, increasing concentrations): inhibited the ability of SEVI fibrils to interact with and bind the cell surface; also recorded: inhibits the interaction of SEVI fibrils with the cell surface
- IL-8 release from cells treated with virus and SEVI (A2En cells): able to inhibit this release
- SEVI-enhanced binding of virions to A2En cells (p24) (HIV-1ADA [5]): inhibited
- SEVI mediated enhancement of HIV infection (luciferase activity) (HIV-1 (IIIB)): decreasing levels of luciferase activity; also recorded: inhibit SEVI mediated enhancement of HIV infection
- Kd [6]: 111 ± 32 nM
- semen mediated enhancement of HIV infection (luciferase activity) (HIV-1 IIIB [2]): decrease in luciferase activity; also recorded: inhibit semen mediated enhancement of HIV Infection
- semen-mediated enhancement of HIV-1 infection (luciferase) (HIV-1ADA [7]): this effect extended to infection with an R5 virus
- semen-mediated enhancement of HIV-1 infection (luciferase) (HIV-1IIIB): efficiently inhibited the semen mediated enhancement of HIV-1 infection; also recorded: inhibits semen-mediated enhancement of HIV-1 infectivity
- production of inflammatory cytokines and chemokines (Mip-3α, IL-8, IL-1β, TNF-α) [3]: did not lead to the release of any of these cytokines or chemokines; also recorded: do not induce cytokine production in cervical epithelial cells; also recorded: does not induce inflammatory chemokine production in cervical epithelial cells
- SEVI-mediated enhancement of HIV-1 infection in PBMCs (p24) (HIV-1BaL; 15 μg/ml SEVI, day 4): able to inhibit SEVI-mediated enhancement of HIV-1 infection in PBMCs
- infectivity of HIV-1BaL in PBMCs in the absence of SEVI (HIV-1BaL; absence of SEVI): no effect on the infectivity of HIV-1BaL
- binding to SEVI fibrils (displacement of FITC-heparin, polarized fluorescence) (SEVI fibrils): capable of binding SEVI; also recorded: able to displace fluorescent heparin from the SEVI fibrils in a dose-dependent fashion; also recorded: detects binding; also recorded: binds SEVI fibrils
- binding of HIV virions to the cell surface in the absence of SEVI (HIV-1 IIIB [4]; Jurkat cells, no SEVI): no effect on the binding of HIV virions to the cell surface; also recorded: no effect on the binding of HIV-1 virions alone to cells
- SEVI-enhanced binding of HIV-1 IIIB virions to Jurkat cells (p24 ELISA) (HIV-1 IIIB [4]): decrease in HIV-1 binding to the cells; also recorded: decrease SEVI enhanced binding of HIV to target cells; also recorded: efficiently inhibited SEVI-mediated enhancement of HIV-1IIIB attachment to Jurkat cells
- SEVI-enhanced binding of HIV-1 IIIB virions to Jurkat cells (p24 ELISA) (HIV-1 IIIB [4]; listed as BTAEG6): efficiently abrogated
- SEVI-mediated enhancement of HIV-1 infection (luciferase) (HIV-1ADA [8]; 15 μg/ml SEVI, R5 strain): significant dose-dependent inhibition
- infectivity of HIV-1ADA in the absence of SEVI (HIV-1ADA [8]; absence of SEVI): No effect on the infectivity of HIV-1ADA

Compound: heparin [reference compound]
- MFI (mean fluorescent intensity) (Jurkat cells; [9]): 376
- SA-FITC+ (cells with bound fibrils) (Jurkat cells; [9]): 31.7%
- binding to SEVI fibrils (displacement of FITC-heparin, polarized fluorescence) (SEVI fibrils): polarization decreased
